As a reminder, the EC50 is the concentration needed to bring the measured effect to its halfway point.

This experiment is described as follows: RSV-A Assay: The description is Japanese.
For `CC1(c2nc(-c3nnc(N[C@H]4N=C(c5ccccc5)c5ccccc5NC4=O)o3)c(N3CCOCC3)s2)CCC1`, the EC50 is under 400 nM.
For `O=C1Nc2ccccc2C(c2ccccc2)=NC1Nc1nnc(-c2ccc(-n3cccn3)cc2N2CCOCC2)o1` (stereo not given), the EC50 was under 400 nM.
The value for `O=C1Nc2ccccc2C(c2ccccc2)=NC1Nc1ccnc(-c2ccccc2)n1` (stereo not given) was over 800 nM; that for `C#Cc1nc(C(=O)O)c(N2CCOCC2)s1` was under 400 nM; that for `COC1CN(c2ncccc2-c2nnc(NC3N=C(c4ccccc4)c4ccccc4NC3=O)o2)C1` (stereo not given) was over 800 nM.
The value for `O=C1Nc2ccccc2C(c2ccccc2)=NC1Nc1nnc(-c2cccc(F)c2N2CCOCC2)o1` (stereo not given) was over 800 nM.
For `O=C1Nc2ccccc2C(c2ccccc2)=NC1Nc1nnc(-c2cccc(F)c2)o1` (stereo not given) the value was over 800 nM; for `C[C@H]1CN(c2ncccc2-c2nnc(NC3N=C(c4ccccc4)c4ccccc4NC3=O)o2)CCO1` (stereo not given in full), “in the range around 600 nM”.
As for `O=C1Nc2ccccc2C(c2ccccc2)=NC1Nc1nnc(-c2cccnc2N2CCCCC2)o1` (stereo not given), the concentration giving a half-maximal response (EC50) was over 800 nM.
The value for `O=C1Nc2ccccc2C(c2ccccc2)=NC1Nc1nnc(-c2ccccn2)o1` (stereo not given) was “in the range around 600 nM”.
The value for `O=C1Nc2ccccc2C(c2ccc(F)cc2)=NC1Nc1nnc(-c2ccc(F)cc2)o1` (stereo not given) was over 800 nM.
`O=C1Nc2ccccc2C(c2ccccc2)=NC1Nc1nnc(CCC(F)(F)F)o1` (stereo not given) yielded an EC50 of over 800 nM.
As for `COc1ccc(-c2nnc(NC3N=C(c4ccccc4)c4ccccc4NC3=O)o2)nc1` (stereo not given), the EC50 result is “in the range around 600 nM”.
For `COCc1cccc(-c2nnc(NC3N=C(c4ccccc4)c4ccccc4NC3=O)o2)n1` (stereo not given) the value was over 800 nM; for `CCOC(=O)c1cn(-c2cccnc2)nc1N1CCOCC1`, under 400 nM; for `O=C1Nc2ccccc2C(c2ccccc2)=NC1Nc1nnc(-c2cccnc2N2C[C@H]3COC[C@H]3C2)o1` (stereo not given in full), over 800 nM.
`COCCOc1cc(C#N)ccc1-c1nnc(N[C@H]2N=C(c3ccccc3)c3ccccc3NC2=O)o1` displayed an EC50 of under 400 nM.
For `CCOC(=O)c1csc(C(F)(F)C(F)(F)F)n1` the value was under 400 nM; for `O=C1Nc2ccccc2C(c2ccccc2)=NC1Nc1ccc(-c2ccc(F)cc2)nn1` (stereo not given), over 800 nM; for `O=C1Nc2ccccc2C(c2ccccc2)=NC1Nc1nnc(-c2ccc(N3CCOCC3)cc2)o1` (stereo not given), under 400 nM.
As for `COCCNc1cc(C(F)(F)F)cnc1-c1nnc(N[C@H]2N=C(c3ccccc3)c3ccccc3NC2=O)o1`, the EC50 is under 400 nM.
For `O=C1Nc2ccccc2C(c2ccccc2)=N[C@@H]1Nc1nnc(-c2cc3ccccc3nc2N2CCOCC2)o1` the value was under 400 nM; for `O=C1Nc2ccccc2C(c2ccccc2)=NC1Nc1nnc(-c2cccnc2)o1` (stereo not given), over 800 nM; for `O=C1Nc2ccccc2C(c2ccccc2)=NC1Nc1nnc(-c2cscn2)o1` (stereo not given), “in the range around 600 nM”.
For `O=C1Nc2ccccc2C(c2ccccc2)=NC1Nc1nnc(-c2ccccc2N2CCOCC2)[nH]1` (stereo not given), the EC50 was over 800 nM.
In the case of `C[C@@H]1COCCN1c1cc(C#N)cnc1-c1nnc(N[C@H]2N=C(c3ccccc3)c3ccccc3NC2=O)o1`, the EC50 was under 400 nM.
The value for `O=C1Nc2ccccc2C(c2ccccc2)=N[C@H]1Nc1nnc(-c2ccc(N3CCOCC3)cc2F)o1` was over 800 nM; that for `O=C(O)c1cnc(C(F)(F)F)nc1N1CCOCC1` was under 400 nM.
`CC(C)Oc1cccc(-c2nnc(NC3N=C(c4ccccc4)c4ccccc4NC3=O)o2)c1` (stereo not given): the EC50 result is “in the range around 600 nM”.
For `COC(=O)c1sc(Br)cc1N1CCOCC1` the value was under 400 nM; for `O=C1Nc2ccccc2C(c2ccccc2)=NC1Nc1nnc([C@H]2CCCO2)o1` (stereo not given in full), over 800 nM.
For `O=C1Nc2ccccc2C(c2ccccc2)=NC1Nc1nnc(-c2ncco2)o1` (stereo not given) the value was over 800 nM; for `O=C1Nc2ccccc2C(c2ccccc2)=N[C@@H]1Nc1nnc(-c2cnc(N3CCOCC3)nc2)o1`, “in the range around 600 nM”.
Take `O=C1Nc2ccccc2C(c2ccccc2)=NC1Nc1cc(N2CCOCC2)ncn1` (stereo not given): the EC50 was over 800 nM.
For `O=C1Nc2ccccc2C(c2ccccc2)=NC1Nc1nnc(-c2ccnc(F)c2)o1` (stereo not given) the value was under 400 nM; for `O=C1Nc2ccccc2C(c2ccccc2)=NC1Nc1nnc(-c2nccnc2N2CCOCC2)o1` (stereo not given), under 400 nM; for `O=C1Nc2ccccc2C(c2ccccc2)=NC1Nc1nc(Cl)ns1` (stereo not given), over 800 nM.
For `N#Cc1cnc(-c2nnc(N[C@H]3N=C(c4ccccc4)c4ccccc4NC3=O)o2)c(N2C3CCC2COC3)c1` the value was “in the range around 600 nM”; for `Cc1ccc(C(=O)O)c(N2CCOCC2)n1`, under 400 nM.
For `O=C1Nc2ccccc2C(c2ccccc2)=N[C@@H]1Nc1nnc(-c2ncc(C(F)(F)F)cc2N[C@@H]2CCOC2)o1` the value was under 400 nM.
`O=C1Nc2ccccc2C(c2ccccc2)=NC1Nc1nnc(-c2ccccc2NCc2ccccn2)o1` (stereo not given) displayed an EC50 of over 800 nM.
For `N#Cc1ccc(-c2nnc(N[C@H]3N=C(c4ccccc4)c4ccccc4NC3=O)o2)c(N2C3CCC2COC3)c1` the value was under 400 nM; for `N#Cc1ccc(-c2nnc(NC3N=C(c4ccccc4)c4ccccc4NC3=O)s2)cc1` (stereo not given), “in the range around 600 nM”.
For `O=C1Nc2ccccc2C(c2ccccc2)=N[C@@H]1Nc1nnc(-c2nc(-c3ccncc3)sc2N2CCOCC2)o1` the value was under 400 nM.
The value for `O=C1Nc2ccccc2C(c2ccccc2)=NC1Nc1nnc(C23CCN(CC2)CC3)o1` (stereo not given) was over 800 nM; that for `Cc1nc(-c2nnc(NC3N=C(c4ccccc4)c4ccccc4NC3=O)o2)ccc1F` (stereo not given) was over 800 nM; that for `CCOC(=O)c1ccc(C2CC2)nc1Cl` was under 400 nM.
In turn, `N#Cc1ccc(-c2nnc(N[C@H]3N=C(c4ccccc4)c4ccccc4NC3=O)o2)c(-c2ccoc2)c1` displayed a concentration for a half-maximal effect (EC50) of over 800 nM.
For `C[C@H]1CN(c2cc(C#N)cnc2-c2nnc(N[C@H]3N=C(c4ccccc4)c4ccccc4NC3=O)o2)CCO1` the value was under 400 nM; for `C[C@@H]1CN(c2ncccc2-c2nnc(NC3N=C(c4ccccc4)c4ccccc4NC3=O)o2)CCO1` (stereo not given in full), over 800 nM.
The value for `COCC(C)(C)Nc1cc(C(F)(F)F)cnc1-c1nnc(N[C@H]2N=C(c3ccccc3)c3ccccc3NC2=O)o1` was over 800 nM; that for `N#Cc1cnc(-c2nnc(NC3N=C(c4ccccc4)c4ccccc4NC3=O)o2)c(N2CCOCC2)c1` (stereo not given) was under 400 nM.
The value for `O=C1Nc2ccccc2C(c2ccccc2)=NC1Nc1nnc(-c2cc[nH]c(=O)c2)o1` (stereo not given) was over 800 nM.
In the case of `CCOC(=O)c1nc2ccccn2c1N`, the EC50 is over 800 nM.
For `CCOC(=O)c1ccnc2ccc(OC)cc12` the value was over 800 nM.
Turning to `Cc1nnc(NC2N=C(c3ccccc3)c3ccccc3NC2=O)o1` (stereo not given), the EC50 was over 800 nM.
For `CC(C)(O)c1nc(-c2nnc(N[C@H]3N=C(c4ccccc4)c4ccccc4NC3=O)o2)c(N2CCOCC2)s1` the value was under 400 nM; for `O=C1Nc2ccccc2C(c2ccccc2)=N[C@@H]1Nc1nnc(-c2ncc(C3CC3)cc2N2CC3CCC(C2)O3)o1`, under 400 nM.
The value for `COc1cnc(-c2nnc(NC3N=C(c4ccccc4)c4ccccc4NC3=O)o2)c(F)c1` (stereo not given) was over 800 nM; that for `O=C1Nc2ccccc2C(c2ccccc2)=NC1Nc1cc(Oc2ccccc2)ncn1` (stereo not given) was over 800 nM; that for `O=C1Nc2ccccc2C(c2ccccc2)=NC1Nc1nnc(-c2cc3cccnc3s2)o1` (stereo not given) was over 800 nM.
As for `CC1(C)CC(c2nnc(NC3N=C(c4ccccc4)c4ccccc4NC3=O)o2)C1` (stereo not given), the EC50 is over 800 nM.
The value for `COC[C@@H]1C[C@H]1c1sc(C(F)(F)F)nc1-c1nnc(N[C@H]2N=C(c3ccccc3)c3ccccc3NC2=O)o1` was over 800 nM.
In turn, `O=C1Nc2ccccc2C(c2ccccc2)=N[C@@H]1Nc1nnc(-c2ncc(C3CC3)cc2N2CCOCC2)o1` displayed an EC50 of under 400 nM.
The value for `COCCN(C)c1ccc(-c2nnc(NC3N=C(c4ccccc4)c4ccccc4NC3=O)o2)cc1` (stereo not given) was over 800 nM.
The value for `CO[C@@H]1CCN(c2ccccc2-c2nnc(NC3N=C(c4ccccc4)c4ccccc4NC3=O)o2)C1` (stereo not given in full) was over 800 nM; that for `N#Cc1ccc(-c2ccc(NC3N=C(c4ccccc4)c4ccccc4NC3=O)nn2)cc1` (stereo not given) was under 400 nM.
Molecule `N#Cc1ccc(-c2nnc(N[C@H]3N=C(c4ccccc4)c4ccccc4NC3=O)o2)c(N2CCOCC2)c1` yielded a half-maximal effective concentration (EC50) of under 400 nM.
The value for `Cn1cc(-c2nnc(NC3N=C(c4ccccc4)c4ccccc4NC3=O)o2)cn1` (stereo not given) was “in the range around 600 nM”; that for `CCOC(=O)c1ncc(N2CCCC2)cc1N1CCOCC1` was under 400 nM; that for `O=C1Nc2ccccc2C(c2ccccc2)=N[C@@H]1Nc1nnc(-c2ccc(C(F)(F)F)nc2N2CC3CCC(C2)O3)o1` was “in the range around 600 nM”.
For `CC(C)(O)CNc1cc(C(F)(F)F)cnc1-c1nnc(N[C@H]2N=C(c3ccccc3)c3ccccc3NC2=O)o1`, the concentration giving a half-maximal response (EC50) is under 400 nM.
On to `COCCn1ccc2cccc(C(=O)OC)c21`, for which the 50% effective concentration (EC50) is over 800 nM.
In turn, `CCOC(=O)c1nc(-c2cnn(C)c2)sc1N1CCOCC1` displayed an EC50 of under 400 nM.
Take `O=C1Nc2ccccc2C(c2ccccc2)=NC1Nc1ccc(-c2ccncc2)nn1` (stereo not given): the EC50 is over 800 nM.
For `COCCNc1ccc(-c2nnc(NC3N=C(c4ccccc4)c4ccccc4NC3=O)o2)cc1` (stereo not given) the value was over 800 nM; for `O=C1Nc2ccccc2C(c2ccccc2)=NC1Nc1nnc(-c2ccc(C(F)(F)F)cc2)o1` (stereo not given), over 800 nM; for `O=C1Nc2ccccc2C(c2ccccc2)=NC1Nc1nnc(-c2ccc(OC(F)(F)F)cc2)o1` (stereo not given), over 800 nM.
The value for `O=C1Nc2ccccc2C(c2ccccc2)=N[C@@H]1Nc1cc(-c2ccccc2)cnn1` was over 800 nM.
In turn, `CCOC(=O)c1ncc(C(F)(F)F)cc1N` registered an EC50 of over 800 nM.
`CN1CCC(c2nnc(NC3N=C(c4ccccc4)c4ccccc4NC3=O)o2)CC1` (stereo not given) came in with an EC50 of over 800 nM.
For `O=C1Nc2ccccc2C(c2ccccc2)=NC1Nc1nnc(-c2cnccn2)o1` (stereo not given) the value was over 800 nM; for `CC1(c2nnc(NC3N=C(c4ccccc4)c4ccccc4NC3=O)o2)CC1` (stereo not given), over 800 nM.
The value for `O=C1Nc2ccccc2C(c2ccccc2)=NC1Nc1nc(-c2ccccc2)cs1` (stereo not given) was over 800 nM; that for `Cc1cc(-c2nnc(N[C@H]3N=C(c4ccccc4)c4ccccc4NC3=O)o2)n(C2CCOCC2)n1` was over 800 nM.

Source of the values: ChEMBL document CHEMBL5729210, “Benzodiazepine derivatives as RSV inhibitors” (2022).
